{"source": "the NIST ThermoML archive (doi:10.1016/j.jct.2018.11.013)", "experiment": "Boiling temperature at pressure P", "details": "101.3 kPa; Liquid; Ebulliometric method (Recirculating still)", "note": "Numbers after ± are expanded uncertainties.", "data": [{"smiles": "CCOCCO", "note": "[2-ethoxyethan-1-ol]", "values": [{"measurement": "Boiling temperature at pressure P", "value": "135.04 ± 0.71", "unit": "°C"}]}, {"smiles": "CC(C)O", "note": "[propan-2-ol]", "values": [{"measurement": "Boiling temperature at pressure P", "value": "82.12 ± 0.71", "unit": "°C"}]}, {"smiles": "CCCCOC(C)=O", "note": "[butyl ethanoate]", "values": [{"measurement": "Boiling temperature at pressure P", "value": "126.11 ± 0.71", "unit": "°C"}]}, {"smiles": "CC(C)OC(C)C", "note": "[diisopropyl ether]", "values": [{"measurement": "Boiling temperature at pressure P", "value": "68.62 ± 0.71", "unit": "°C"}]}]}
